Experimental data as given in the supplement of paper PMC11061612.

Columns and labels:
Assay in all cases: combination Emax (second highest fraction inhibited in the dose matrix, 72 h); higher = more inhibition; extreme values may be limits of the assay
BT-20 (Breast Carcinoma) = system: BT-20 (Breast Carcinoma)
Outline: (§1)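 Cell lines grown in DMEM/F12 or RPMI with 10% FBS were plated in 1536-well plates and held 24 hours at 37°C, 5% CO2 before 72 hours of exposure to two-drug dose matrices, with DMSO typically at 0.2%. CellTiter-Glo 2.0 luminescence gave viability, which was converted to inhibition. Vehicle wells were set to 0 and blank wells to 1. Combination Emax is the second-highest inhibition in the matrix, and Bliss excess is the observed combination effect minus the expected EA + EB − EA·EB, where EA and EB are the single-agent effects.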

[1] = system: NCI-H2405 (Lung Adenocarcinoma)
Outline: as §1

[2] = system: OCUB-M (Breast Carcinoma)
Outline: as §1

[3] = system: KU-19-19 (Bladder Carcinoma)
Outline: as §1

[4] = system: PFSK-1 (Other Solid Carcinomas)
Outline: as §1

[5] = system: DG-75 (Burkitt's Lymphoma)
Outline: as §1

[6] = system: NCI-H1573 (Lung Adenocarcinoma)
Outline: as §1

[7] = system: HSC-2 (Oral Cavity Carcinoma)
Outline: as §1

[8] = system: EMC-BAC-2 (Non-Small Cell Lung Carcinoma)
Outline: as §1

NB7 (Neuroblastoma) = system: NB7 (Neuroblastoma)
Outline: as §1

[9] = system: NCI-H513 (Other Solid Carcinomas)
Outline: as §1

[10] = system: KP-2 (Pancreatic Carcinoma)
Outline: as §1

[11] = system: HuP-T3 (Pancreatic Carcinoma)
Outline: as §1

[12] = system: KYSE-50 (Esophageal Squamous Cell Carcinoma)
Outline: as §1

[13] = system: H-EMC-SS (Chondrosarcoma)
Outline: as §1

[14] = system: SCC-3 (B-Cell Non-Hodgkin's Lymphoma)
Outline: as §1

[15] = system: KLE (Endometrial Carcinoma)
Outline: as §1

IMR-5 (Neuroblastoma) = system: IMR-5 (Neuroblastoma)
Outline: as §1

[16] = system: NCI-H2347 (Lung Adenocarcinoma)
Outline: as §1

U-87-MG (Glioblastoma) = system: U-87-MG (Glioblastoma)
Outline: as §1

SMILES | combination Emax (BT-20 (Breast Carcinoma)) | combination Emax [1] | combination Emax [2] | combination Emax [3] | combination Emax [4] | combination Emax [5] | combination Emax [6] | combination Emax [7] | combination Emax [8] | combination Emax (NB7 (Neuroblastoma)) | combination Emax [9] | combination Emax [10] | combination Emax [11] | combination Emax [12] | combination Emax [13] | combination Emax [14] | combination Emax [15] | combination Emax (IMR-5 (Neuroblastoma)) | combination Emax [16] | combination Emax (U-87-MG (Glioblastoma))
CC(=O)c1c(C)c2cnc(Nc3ccc(N4CCNCC4)cn3)nc2n(C2CCCC2)c1=O [Palbociclib] + CC1(C)CCC(CN2CCN(c3ccc(C(=O)NS(=O)(=O)c4ccc(NCC5CCOCC5)c([N+](=O)[O-])c4)c(Oc4cnc5[nH]ccc5c4)c3)CC2)=C(c2ccc(Cl)cc2)C1 [Venetoclax] (first compound max 10 µM, 7x7, partner max 1 µM) | 0.0933 | 0.0998 | 0.0811 | 0.319 | 0.235 | 0.705 | 0.284 | 0.245 | 0.243 | 0.191 | 0.0783 | 0.056 | 0.187 | 0.233 | 0.284 | 0.378 | 0.203 | 0.7 | 0.14 | 0.29
CC1(C)CCC(CN2CCN(c3ccc(C(=O)NS(=O)(=O)c4ccc(NCC5CCOCC5)c([N+](=O)[O-])c4)c(Oc4cnc5[nH]ccc5c4)c3)CC2)=C(c2ccc(Cl)cc2)C1 [Venetoclax] + Cn1cnc2c(F)c(Nc3ccc(Br)cc3Cl)c(C(=O)NOCCO)cc21 [Selumetinib] (first compound max 1 µM, 7x7, partner max 3 µM) | 0.231 | 0.373 | 0.286 | 0.748 | 0.171 | 0.257 | 0.289 | 0.161 | 0.347 | 0.137 | 0.228 | 0.455 | 0.316 | 0.133 | 0.341 | 0.205 | 0.276 | 0.221 | 0.344 | 0.223
COc1nnc2ccc(N3CCC(c4ccc(OCCN5CCN(C)C(=O)[C@H]5C)cc4)CC3)nn12 [AZD5153] + CCN(CCO)CCCOc1ccc2c(Nc3cc(CC(=O)Nc4cccc(F)c4)[nH]n3)ncnc2c1 [AZD2811] (first compound max 1 µM, 7x7, partner max 1 µM) | 0.185 | 0.367 | 0.69 | 0.665 | 0.574 | 0.892 | 0.412 | 0.662 | 0.738 | 0.441 | 0.375 | 0.401 | 0.597 | 0.651 | 0.248 | 0.9 | 0.674 | 1 | 0.385 | 0.603
CN(CCO)CC[C@H](CSc1ccccc1)Nc1ccc(S(=O)(=O)NC(=O)c2ccc(N3CCC([C@@H](O)c4ccccc4-c4ccc(Cl)cc4)CC3)cc2)cc1S(=O)(=O)C(F)(F)F [AZD4320] + C[C@@H](Nc1cc(F)cc(F)c1)c1cc(C(=O)N(C)C)cc2c(=O)cc(N3CCOCC3)oc12 [AZD8186] (first compound max 1 µM, 7x7, partner max 3 µM) | 0.614 | 0.417 | 0.835 | 0.315 | 0.471 | 0.286 | 0.289 | 0.897 | 0.383 | 0.49 | 0.342 | 0.827 | 0.332 | 0.283 | 0.727 | 0.543 | 0.61 | 1 | 0.698 | 0.527
C[C@@H](c1ccc2nccn2c1)n1nnc2ncc(-c3cnn(C)c3)nc21 [Savolitinib] + Cc1c2c(nn1C)CSCc1cc(n(C)n1)CSc1cc(c3ccccc3c1)OCCCc1c(C(=O)O)n(C)c3c-2c(Cl)ccc13 [AZD5991] (first compound max 1 µM, 7x7, partner max 1 µM) | 0.465 | 0.0962 | 0.899 | 0.204 | 0.93 | 0.11 | 0.351 | 0.711 | 0.45 | 0.462 | 0.0607 | 0.205 | 0.189 | 0.298 | 0.182 | 0.279 | 0.162 | 0.645 | 0.107 | 0.288
COc1nnc2ccc(N3CCC(c4ccc(OCCN5CCN(C)C(=O)[C@H]5C)cc4)CC3)nn12 [AZD5153] + C[C@@H]1COCCN1C2=NC(=NC(=C2)C3(CC3)[S@](=N)(=O)C)C4=C5C=CNC5=NC=C4 [AZD6738] (first compound max 1 µM, 7x7, partner max 10 µM) | 0.399 | 0.511 | 0.735 | 0.685 | 0.648 | 0.909 | 0.709 | 0.79 | 0.816 | 0.589 | 0.523 | 0.432 | 0.705 | 0.804 | 0.321 | 0.986 | 0.737 | 1 | 0.525 | 0.698
Cc1c2c(nn1C)CSCc1cc(n(C)n1)CSc1cc(c3ccccc3c1)OCCCc1c(C(=O)O)n(C)c3c-2c(Cl)ccc13 [AZD5991] + CC1(C)CCC(CN2CCN(c3ccc(C(=O)NS(=O)(=O)c4ccc(NCC5CCOCC5)c([N+](=O)[O-])c4)c(Oc4cnc5[nH]ccc5c4)c3)CC2)=C(c2ccc(Cl)cc2)C1 [Venetoclax] (first compound max 1 µM, 7x7, partner max 1 µM) | 0.889 | 0.175 | 0.996 | 0.588 | 1 | 0.144 | 0.302 | 0.965 | 0.694 | 0.513 | 0.156 | 0.239 | 0.128 | 0.418 | 0.515 | 0.358 | 0.156 | 0.995 | 0.138 | 0.174
CC1(C)CCC(CN2CCN(c3ccc(C(=O)NS(=O)(=O)c4ccc(NCC5CCOCC5)c([N+](=O)[O-])c4)c(Oc4cnc5[nH]ccc5c4)c3)CC2)=C(c2ccc(Cl)cc2)C1 [Venetoclax] + CCN(CCO)CCCOc1ccc2c(Nc3cc(CC(=O)Nc4cccc(F)c4)[nH]n3)ncnc2c1 [AZD2811] (first compound max 1 µM, 7x7, partner max 1 µM) | 0.294 | 0.167 | 0.749 | 0.404 | 0.304 | 0.204 | 0.215 | 0.327 | 0.343 | 0.259 | 0.183 | 0.228 | 0.197 | 0.413 | 0.164 | 0.31 | 0.273 | 1 | 0.145 | 0.265
Cc1c2c(nn1C)CSCc1cc(n(C)n1)CSc1cc(c3ccccc3c1)OCCCc1c(C(=O)O)n(C)c3c-2c(Cl)ccc13 [AZD5991] + Cc1cc2ncnn2cc1Nc1ncc2c(n1)n(C1CCOCC1)c(=O)n2C [AZD7648] (first compound max 1 µM, 7x7, partner max 10 µM) | 0.694 | 0.204 | 0.983 | 0.26 | 1 | 0.362 | 0.673 | 0.844 | 0.678 | 0.546 | 0.324 | 0.2 | 0.228 | 0.284 | 0.479 | 0.308 | 0.342 | 1 | 0.287 | 0.326
CN(CCO)CC[C@H](CSc1ccccc1)Nc1ccc(S(=O)(=O)NC(=O)c2ccc(N3CCC([C@@H](O)c4ccccc4-c4ccc(Cl)cc4)CC3)cc2)cc1S(=O)(=O)C(F)(F)F [AZD4320] + CCN(CCO)CCCOc1ccc2c(Nc3cc(CC(=O)Nc4cccc(F)c4)[nH]n3)ncnc2c1 [AZD2811] (first compound max 1 µM, 7x7, partner max 1 µM) | 0.653 | 0.137 | 0.874 | 0.498 | 0.319 | 0.196 | 0.27 | 0.827 | 0.417 | 0.267 | 0.13 | 0.921 | 0.128 | 0.382 | 0.521 | 0.316 | 0.297 | 1 | 0.476 | 0.253
Cn1cnc2c(F)c(Nc3ccc(Br)cc3Cl)c(C(=O)NOCCO)cc21 [Selumetinib] + C[C@@H]1COCCN1C2=NC(=NC(=C2)C3(CC3)[S@](=N)(=O)C)C4=C5C=CNC5=NC=C4 [AZD6738] (first compound max 10 µM, 7x7, partner max 10 µM) | 0.576 | 0.401 | 0.249 | 0.89 | 0.595 | 0.807 | 0.663 | 0.569 | 0.557 | 0.597 | 0.416 | 0.483 | 0.517 | 0.573 | 0.296 | 0.933 | 0.442 | 1 | 0.382 | 0.457
Cn1cnc2c(F)c(Nc3ccc(Br)cc3Cl)c(C(=O)NOCCO)cc21 [Selumetinib] + C=CCn1c(=O)c2cnc(Nc3ccc(N4CCN(C)CC4)cc3)nc2n1-c1cccc(C(C)(C)O)n1 [AZD1775] (first compound max 10 µM, partner max 1 µM) | 0.695 | 0.395 | 0.0588 | 0.917 | 0.659 | 0.634 | 0.417 | 0.372 | 0.412 | 0.619 | 0.406 | 0.54 | 0.629 | 0.605 | 0.23 | 0.896 | 0.539 | 0.894 | 0.468 | 0.252
